Legend:
[1] = test system: Puccinia recondita f. sp. tritici; experiment: Example A2: fungicidal activity against Puccinia recondita f. sp. tritici / wheat / leaf disc curative (brown rust); assay type: in vivo; conditions: foliar, 24 h, 200 ppm in the applied formulation, curative (applied 1 day after inoculation), wheat leaf segments, read-out: disease control
Protocol: (§1) Leaf disks or leaf segments of various plant species are cut from plants grown in a greenhouse. The cut leaf disks or segments are placed in multiwell plates (24-well format) onto water agar. The leaf disks are sprayed with a test solution before (preventative) or after (curative) inoculation. Compounds to be tested are prepared as DMSO solutions (max. 10 mg/mL) which are diluted to the appropriate concentration with 0.025% Tween20 just before spraying. The inoculated leaf disks or segments are incubated under defined conditions (temperature, relative humidity, light, etc.) according to the respective test system. A single evaluation of disease level is carried out 3 to 14 days after inoculation, depending on the pathosystem. Percent disease control relative to the untreated check leaf disks or segments is then calculated.
Wheat leaf segments cv. Kanzler are placed on agar in multiwell plates (24-well format). The leaf segments are then inoculated with a spore suspension of the fungus. Plates were stored in darkness at 19° C. and 75% relative humidity. The formulated test compound diluted in water was applied 1 day after inoculation. The leaf segments were incubated at 19° C. and 75% relative humidity under a light regime of 12 hours light/12 hours darkness in a climate cabinet and the activity of a compound was assessed as percent disease control compared to untreated when an appropriate level of disease damage appears in untreated check leaf segments (6 to 8 days after application).

[2] = test system: Puccinia recondita f. sp. tritici; experiment: Example A1: fungicidal activity against Puccinia recondita f. sp. tritici / wheat / leaf disc preventative (brown rust); assay type: in vivo; conditions: foliar, 200 ppm in the applied formulation, wheat leaf segments, compared to untreated, read-out: disease control
Protocol: as §1
Wheat leaf segments cv. Kanzler were placed on agar in multiwell plates (24-well format) and sprayed with the formulated test compound diluted in water. The leaf disks were inoculated with a spore suspension of the fungus 1 day after application. The inoculated leaf segments were incubated at 19° C. and 75% relative humidity (rh) under a light regime of 12 hours light/12 hours darkness in a climate cabinet and the activity of a compound was assessed as percent disease control compared to untreated when an appropriate level of disease damage appears in untreated check leaf segments (7 to 9 days after application).

Phakopsora pachrhizi = experiment: Example A3: fungicidal activity against Phakopsora pachrhizi / soybean / leaf disc preventative (Asian soybean rust); assay type: in vivo; conditions: Phakopsora pachyrhizi, foliar, 200 ppm in the applied formulation, soybean leaf disks, read-out: disease control
Protocol: as §1
Soybean leaf disks are placed on water agar in multiwell plates (24-well format) and sprayed with the formulated test compound diluted in water. One day after application leaf discs are inoculated by spraying a spore suspension on the lower leaf surface. After an incubation period in a climate cabinet of 24-36 hours in darkness at 20° C. and 75% rh leaf disc are kept at 20° C. with 12 h light/day and 75% rh. The activity of a compound is assessed as percent disease control compared to untreated when an appropriate level of disease damage appears in untreated check leaf disks (12 to 14 days after application).

[3] = test system: Glomerella lagenarium (Colletotrichum lagenarium); experiment: Example A4: fungicidal activity against Glomerella lagenarium (Colletotrichum lagenarium) liquid culture / cucumber / preventative (anthracnose); assay type: cell-based; conditions: Colletotrichum orbiculare, 20 ppm in the applied formulation, growth measured photometrically 3 to 4 days after application, read-out: disease control
Protocol: Mycelia fragments or conidia suspensions of a fungus prepared either freshly from liquid cultures of the fungus or from cryogenic storage, are directly mixed into nutrient broth. DMSO solutions of the test compound (max. 10 mg/mL) are diluted with 0.025% Tween20 by a factor of 50 and 10 μL of this solution is pipetted into a microtiter plate (96-well format). The nutrient broth containing the fungal spores/mycelia fragments is then added to give an end concentration of the tested compound. The test plates are incubated in the dark at 24° C. and 96% relative humidity. The inhibition of fungal growth is determined photometrically after 2 to 7 days, depending on the pathosystem, and percent antifungal activity relative to the untreated check is calculated. Conidia of the fungus from cryogenic storage are directly mixed into nutrient broth (PDB—potato dextrose broth). After placing a (DMSO) solution of test compound into a microtiter plate (96-well format), the nutrient broth containing the fungal spores is added.

melting point [°C] | SMILES | pest or weed control at 200 ppm [1] [%] | pest or weed control at 200 ppm [2] [%] | pest or weed control at 200 ppm (Phakopsora pachrhizi) [%] | inhibition of growth at 20 ppm [3] [%]
68.2 to 70.1 | FC(F)(F)c1ncn(Cc2ccc(-c3noc(C(F)(F)F)n3)cc2)n1 [X.01, 5-(trifluoromethyl)-3-[4-[[3-(trifluoromethyl)-1,2,4-triazol-1-yl]methyl]phenyl]-1,2,4-oxadiazole] | ≥ 80 | ≥ 80 | ≥ 80 | ≥ 80
189 to 194 | O=C(NC1CC1)c1cnn(Cc2ccc(-c3noc(C(F)(F)F)n3)cc2)c1 [X.04, N-cyclopropyl-1-[[4-[5-(trifluoromethyl)-1,2,4-oxadiazol-3-yl]phenyl]methyl]pyrazole-4-carboxamide] | ≥ 80 | ≥ 80 | ≥ 80 | ≥ 80
124 to 129 | CN(C)C(=O)c1cnn(Cc2ccc(-c3noc(C(F)(F)F)n3)cc2)c1 [X.05, N,N-dimethyl-1-[[4-[5-(trifluoromethyl)-1,2,4-oxadiazol-3-yl]phenyl]methyl]pyrazole-4-carboxamide] | ≥ 80 | ≥ 80 | ≥ 80 | ≥ 80
156 to 161 | CNC(=O)c1cnn(Cc2ccc(-c3noc(C(F)(F)F)n3)cc2)c1 [X.06, N-methyl-1-[[4-[5-(trifluoromethyl)-1,2,4-oxadiazol-3-yl]phenyl]methyl]pyrazole-4-carboxamide] | ≥ 80 | ≥ 80 | ≥ 80 | ≥ 80
121 to 122 | FC(F)(F)c1nc(-c2ccc(Cn3nc4cccnc4n3)cc2)no1 [X.10, 3-[4-(triazolo[4,5-b]pyridin-2-ylmethyl)phenyl]-5-(trifluoromethyl)-1,2,4-oxadiazole] | ≥ 80 | ≥ 80 | ≥ 80 | ≥ 80
143 to 144 | FC(F)(F)c1nc(-c2ccc(Cn3nnc4cccnc43)cc2)no1 [X.11, 3-[4-(triazolo[4,5-b]pyridin-3-ylmethyl)phenyl]-5-(trifluoromethyl)-1,2,4-oxadiazole] | ≥ 80 | ≥ 80 | ≥ 80 | ≥ 80
122 to 129 | COC(=O)c1cnn(Cc2ccc(-c3noc(C(F)(F)F)n3)cc2)c1 [X.12, methyl 1-[[4-[5-(trifluoromethyl)-1,2,4-oxadiazol-3-yl]phenyl]methyl]pyrazole-4-carboxylate] | ≥ 80 | ≥ 80 | ≥ 80 | ≥ 80
131 to 135 | CCOC(=O)c1cnn(Cc2ccc(-c3noc(C(F)(F)F)n3)c(F)c2)c1 [X.13, ethyl 1-[[3-fluoro-4-[5-(trifluoromethyl)-1,2,4-oxadiazol-3-yl]phenyl]methyl]pyrazole-4-carboxylate] | – | ≥ 80 | ≥ 80 | ≥ 80
86 to 96 | CCN(CC)C(=O)c1cnn(Cc2ccc(-c3noc(C(F)(F)F)n3)cc2)c1 [X.14, N,N-diethyl-1-[[4-[5-(trifluoromethyl)-1,2,4-oxadiazol-3-yl]phenyl]methyl]pyrazole-4-carboxamide] | ≥ 80 | ≥ 80 | ≥ 80 | ≥ 80
102 to 112 | CON(C)C(=O)c1cnn(Cc2ccc(-c3noc(C(F)(F)F)n3)cc2)c1 [X.15, N-methoxy-N-methyl-1-[[4-[5-(trifluoromethyl)-1,2,4-oxadiazol-3-yl]phenyl]methyl]pyrazole-4-carboxamide] | ≥ 80 | ≥ 80 | ≥ 80 | ≥ 80
105 to 115 | CCCOC(=O)c1cnn(Cc2ccc(-c3noc(C(F)(F)F)n3)cc2)c1 [X.16, propyl 1-[[4-[5-(trifluoromethyl)-1,2,4-oxadiazol-3-yl]phenyl]methyl]pyrazole-4-carboxylate] | ≥ 80 | ≥ 80 | ≥ 80 | ≥ 80

Further lines, the molecule ahead of its results:

SMILES | melting point [°C] | pest or weed control at 200 ppm [1] [%] | pest or weed control at 200 ppm [2] [%] | pest or weed control at 200 ppm (Phakopsora pachrhizi) [%] | inhibition of growth at 20 ppm [3] [%]
N#Cc1ncnn1Cc1ccc(-c2noc(C(F)(F)F)n2)cc1 [X.02, 2-[[4-[5-(trifluoromethyl)-1,2,4-oxadiazol-3-yl]phenyl]methyl]-1,2,4-triazole-3-carbonitrile] | – | ≥ 80 | ≥ 80 | ≥ 80 | ≥ 80
CCOC(=O)c1cnn(Cc2ccc(-c3noc(C(F)(F)F)n3)cc2)c1 [X.03, ethyl 1-[[4-[5-(trifluoromethyl)-1,2,4-oxadiazol-3-yl]phenyl]methyl]pyrazole-4-carboxylate] | – | ≥ 80 | ≥ 80 | ≥ 80 | ≥ 80
CN(C)c1ncn(Cc2ccc(-c3noc(C(F)(F)F)n3)cc2)n1 [X.07, N,N-dimethyl-1-[[4-[5-(trifluoromethyl)-1,2,4-oxadiazol-3-yl]phenyl]methyl]-1,2,4-triazol-3-amine] | – | ≥ 80 | ≥ 80 | ≥ 80 | ≥ 80
CCSc1ncnn1Cc1ccc(-c2noc(C(F)(F)F)n2)cc1 [X.08, 3-[4-[(5-ethylsulfanyl-1,2,4-triazol-1-yl)methyl]phenyl]-5-(trifluoromethyl)-1,2,4-oxadiazole] | – | ≥ 80 | ≥ 80 | ≥ 80 | ≥ 80
FC(F)(F)c1nc(-c2ccc(Cn3nnc4ncccc43)cc2)no1 [X.09, 3-[4-(triazolo[4,5-b]pyridin-1-ylmethyl)phenyl]-5-(trifluoromethyl)-1,2,4-oxadiazole] | – | ≥ 80 | ≥ 80 | ≥ 80 | ≥ 80
NC(=O)c1cnn(Cc2ccc(-c3noc(C(F)(F)F)n3)cc2)c1 [X.19, 1-[[4-[5-(trifluoromethyl)-1,2,4-oxadiazol-3-yl]phenyl]methyl]pyrazole-4-carboxamide] | – | ≥ 80 | ≥ 80 | ≥ 80 | ≥ 80
CON=Cc1cnn(Cc2ccc(-c3noc(C(F)(F)F)n3)cc2)c1 [X.20, N-methoxy-1-[1-[[4-[5-(trifluoromethyl)-1,2,4-oxadiazol-3-yl]phenyl]methyl]pyrazol-4-yl]methanimine] | – | ≥ 80 | ≥ 80 | ≥ 80 | ≥ 80
CCOC(=O)c1cnn(C(C)c2ccc(-c3noc(C(F)(F)F)n3)cc2)c1 (centres unmarked) [X.21, ethyl 1-[1-[4-[5-(trifluoromethyl)-1,2,4-oxadiazol-3-yl]phenyl]ethyl]pyrazole-4-carboxylate] | – | ≥ 80 | ≥ 80 | ≥ 80 | ≥ 80
